The values that follow come from patent US9273058B2 (BRISTOL-MYERS SQUIBB COMPANY, priority 2013, dated 2016).

One assay concerns the target CK1ε (Homo sapiens, UniProt P49674). In words: CK1ε kinase assay (Caliper LabChip electrophoretic separation of fluoresceinated peptide substrate and product). Format: biochemical. As to conditions: 200 pM CK1ε, 50 μM ATP, 1.5 μM peptide, 22 hours at room temperature; read-out: CK1ε IC50 range. How it is done:
(§1) CK1ε and CK1δ Kinase Assays
(§2) The kinase assay was performed in V-bottom 384-well plates. […] The reaction was incubated at room temperature for 22 hours and terminated by adding 45 μl of 35 mM EDTA to each sample. The reaction mixture was analyzed on the Caliper LABCHIP®3000 (Caliper, Hopkinton, Mass.) by electrophoretic separation of the unphosphorylated substrate and phosphorylated product. […] Compounds were dissolved at 10 mM in dimethylsulfoxide (DMSO) and evaluated at eleven concentrations. IC50 values were derived by non-linear regression analysis.

The next assay has as its target CK1δ (Homo sapiens, UniProt P48730). In words: CK1δ kinase assay (Caliper LabChip electrophoretic separation of fluoresceinated peptide substrate and product). In kind it is biochemical. Conditions: 200 pM CK1δ, 50 μM ATP, 1.5 μM peptide, 22 hours at room temperature; read-out: CK1δ IC50 range. The protocol:
as §1, §2

A word on the IC50: it is the concentration that gives 50% inhibition.

Sequence of CK1δ (P48730 whole entry): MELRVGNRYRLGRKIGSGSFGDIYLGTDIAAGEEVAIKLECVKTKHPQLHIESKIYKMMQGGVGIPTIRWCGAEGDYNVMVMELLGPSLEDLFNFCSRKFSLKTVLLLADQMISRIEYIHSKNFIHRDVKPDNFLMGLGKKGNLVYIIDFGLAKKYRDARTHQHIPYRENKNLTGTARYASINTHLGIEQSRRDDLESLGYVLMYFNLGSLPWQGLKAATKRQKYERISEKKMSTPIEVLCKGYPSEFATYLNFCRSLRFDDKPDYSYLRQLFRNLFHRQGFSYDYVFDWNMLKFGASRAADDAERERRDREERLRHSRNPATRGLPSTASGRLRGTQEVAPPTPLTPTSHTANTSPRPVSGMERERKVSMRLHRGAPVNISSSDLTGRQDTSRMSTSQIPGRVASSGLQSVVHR
Sequence of CK1ε (P49674 whole entry): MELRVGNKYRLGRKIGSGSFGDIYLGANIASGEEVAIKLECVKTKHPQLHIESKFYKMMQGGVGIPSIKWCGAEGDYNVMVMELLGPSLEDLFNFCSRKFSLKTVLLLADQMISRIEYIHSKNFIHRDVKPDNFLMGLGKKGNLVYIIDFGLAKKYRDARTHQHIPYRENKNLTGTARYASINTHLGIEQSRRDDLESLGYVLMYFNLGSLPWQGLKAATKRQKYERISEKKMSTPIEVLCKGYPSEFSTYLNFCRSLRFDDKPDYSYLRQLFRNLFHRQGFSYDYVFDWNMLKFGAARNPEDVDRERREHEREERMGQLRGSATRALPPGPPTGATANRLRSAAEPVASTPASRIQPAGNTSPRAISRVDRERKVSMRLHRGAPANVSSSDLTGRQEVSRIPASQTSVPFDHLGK

As for `CC(C)(NC(=O)N1CCn2nc(-c3cccc(Cl)c3)c(C(N)=O)c2C1)C(F)F` [Compound 172, 2-(3-Chlorophenyl)-N^5-(1,1-difluoro-2-methylpropan-2-yl)-6,7-dihydropyrazolo[1,5-a] pyrazine-3,5(4H)-dicarboxamide], the concentration for half-maximal inhibition (IC50) at CK1ε and at CK1δ was 0.01 to 10 nM each time. With `NC(=O)c1c(-c2ccc(Cl)c(Cl)c2)nn2c1CN(C(=O)N[C@@H]1CC[C@H]1COC(F)F)CC2` [Compound 243, 2-(3,4-Dichlorophenyl)-N^5-((1R,2R)-2-((difluoromethoxy)methyl)cyclobutyl)-6,7-dihydropyrazolo[1,5-a] pyrazine-3,5(4H)-dicarboxamide], the IC50 at CK1ε and on CK1δ was 0.01 to 10 nM throughout. As for `CC(C)(C)NC(=O)N1CCn2nc(-c3cccc(S(N)(=O)=O)c3)c(C(N)=O)c2C1` [Compound 136, N^5-(tert-Butyl)-2-(3-sulfamoylphenyl)-6,7-dihydropyrazolo[1,5-a] pyrazine-3,5(4H)-dicarboxamide], the 50% inhibitory concentration (IC50) on CK1ε and on CK1δ was 100 to 2000 nM in each case. On to `CC(C)(C)NC(=O)N1Cc2c(C(N)=O)c(-c3ccc(F)c(Cl)c3)nn2C(C(C)(C)O)C1` (centres unmarked) [Compound A18, N^5-(tert-Butyl)-2-(3-chloro-4-fluorophenyl)-7-(2-hydroxypropan-2-yl)-6,7-dihydropyrazolo[1,5-a]pyrazine-3,5(4H)-dicarboxamide], for which the IC50 at CK1ε and on CK1δ was 0.01 to 10 nM in each case. Regarding `NC(=O)c1c(-c2cccc(Cl)c2)nn2c1CN(C(=O)N[C@H]1C[C@H](F)C1)CC2` [Compound 175, 2-(3-Chlorophenyl)-N^5-((1r,3r)-3-fluorocyclobutyl)-6,7-dihydropyrazolo[1,5-a] pyrazine-3,5(4H)-dicarboxamide], the 50% inhibitory concentration (IC50) at CK1ε and on CK1δ was 0.01 to 10 nM throughout. Turning to `CC1(C)C2CCC1(NC(=O)N1CCn3nc(-c4ccc(F)c(Cl)c4)c(C(N)=O)c3C1)CC2O` (centres unmarked) [Compound A66, 2-(3-Chloro-4-fluorophenyl)-N^5-(3-hydroxy-7,7-dimethylbicyclo[2.2.1]heptan-1-yl)-6,7-dihydropyrazolo[1,5-a]pyrazine-3,5(4H)-dicarboxamide], the concentration for half-maximal inhibition (IC50) at CK1ε and on CK1δ was 0.01 to 10 nM each time. `CC1(NC(=O)N2Cc3c(C(N)=O)c(-c4ccc(F)c(Cl)c4)nn3C(CF)C2)CC(F)(F)C1` (centres unmarked) [Compound A9, 2-(3-Chloro-4-fluorophenyl)-N^5-(3,3-difluoro-1-methylcyclobutyl)-7-(fluoromethyl)-6,7-dihydropyrazolo[1,5-a]pyrazine-3,5(4H)-dicarboxamide]: the IC50 on CK1ε and on CK1δ was 0.01 to 10 nM in each case.

Turning to `CC1Cn2nc(-c3ccc(F)c(Cl)c3)c(C(N)=O)c2CN1C(=O)NC1(C)CC(F)(F)C1` (single isomer, unassigned) [Compound 345, 2-(3-Chloro-4-fluorophenyl)-N^5-(3,3-difluoro-1-methylcyclobutyl)-6-methyl-6,7-dihydropyrazolo[1,5-a]pyrazine-3,5(4H)-dicarboxamide], the IC50 at CK1ε and at CK1δ was 0.01 to 10 nM throughout. For `CC12CC3(C)CC(C)(C1)CC(NC(=O)N1CCn4nc(-c5ccc(Cl)c(Cl)c5)c(C(N)=O)c4C1)(C2)C3` [Compound A91, 2-(3,4-Dichlorophenyl)-N^5-((3s,5s,7s)-3,5,7-trimethyladamantan-1-yl)-6,7-dihydropyrazolo[1,5-a]pyrazine-3,5(4H)-dicarboxamide], the IC50 at CK1ε and at CK1δ was 0.01 to 10 nM each time.

As for `COc1ccc([C@H]2C[C@@H](NC(=O)N3CCn4nc(-c5ccc(Cl)c(Cl)c5)c(C(N)=O)c4C3)C2)cc1` [Compound 280, 2-(3,4-dichlorophenyl)-N^5-((1s,3s)-3-(4-methoxyphenyl)cyclobutyl)-6,7-dihydropyrazolo[1,5-a] pyrazine-3,5(4H)-dicarboxamide], the IC50 at CK1ε and at CK1δ was 0.01 to 10 nM in each case. Regarding `NC(=O)c1c(-c2ccc(F)c(Cl)c2)nn2c1CN(C(=O)NC13CCC(C(F)F)(CC1)C3)CC2` [Compound A139, 2-(3-Chloro-4-fluorophenyl)-N^5-(4-(difluoromethyl)bicyclo[2.2.1]heptan-1-yl)-6,7-dihydropyrazolo[1,5-a]pyrazine-3,5(4H)-dicarboxamide], the IC50 on CK1ε and at CK1δ was 0.01 to 10 nM in each case. On to `NC(=O)c1c(-c2cccc(F)c2)nn2c1CN(C(=O)Nc1cc(F)ccc1F)CC2` [Compound 26, N^5-(2,5-Difluorophenyl)-2-(3-fluorophenyl)-6,7-dihydropyrazolo[1,5-a]pyrazine-3,5(4H)-dicarboxamide], for which the half-maximal inhibitory concentration (IC50) at CK1ε and on CK1δ was 10 to 100 nM throughout.

Consider `NC(=O)c1c(-c2cccc(F)c2)nn2c1CN(C(=O)NC1(C(F)(F)F)CC1)CC2` [Compound 20, 2-(3-Fluorophenyl)-N^5-(1-(trifluoromethyl)cyclopropyl)-6,7-dihydropyrazolo[1,5-a]pyrazine-3,5(4H)-dicarboxamide], for which the concentration for half-maximal inhibition (IC50) at CK1ε and at CK1δ was 10 to 100 nM throughout. Consider `CC1CC(NC(=O)N2CCn3nc(-c4cccc(Cl)c4)c(C(N)=O)c3C2)C1` (single isomer, unassigned) [Compound 251, 2-(3-Chlorophenyl)-N^5-(3-methylcyclobutyl)-6,7-dihydropyrazolo[1,5-a]pyrazine-3,5(4H)-dicarboxamide], for which the IC50 on CK1ε and on CK1δ was 0.01 to 10 nM throughout. With `CC(C)(C)NC(=O)N1Cc2c(C(N)=O)c(-c3ccc(F)c(Cl)c3)nn2C(CN2CCOCC2)C1` (centres unmarked) [Compound A16, N^5-(tert-Butyl)-2-(3-chloro-4-fluorophenyl)-7-(morpholinomethyl)-6,7-dihydropyrazolo[1,5-a]pyrazine-3,5(4H)-dicarboxamide], the IC50 on CK1ε is 0.01 to 10 nM; on CK1δ, 10 to 100 nM. Taken in the same sequence, the figures for `NC(=O)c1c(-c2cccc(Cl)c2)nn2c1CN(C(=O)NC1CC(F)(F)C1)CC21CC1` [A130] were 0.01 to 10 nM and 0.01 to 10 nM. Taken in the same sequence, the figures for `NC(=O)c1c(-c2cccc(Cl)c2)nn2c1CN(C(=O)NC13C4C5C1C1C3C4C51F)CC2` (centres unmarked) [Compound A88, N^5-(4-Fluorocuban-1-yl)-2-(3-chlorophenyl)-6,7-dihydropyrazolo[1,5-a]pyrazine-3,5(4H)-dicarboxamide] were 0.01 to 10 nM and 0.01 to 10 nM. Take `NC(=O)c1c(-c2cccc(F)c2)nn2c1CN(C(=O)NCc1ccc(Cl)c(Cl)c1)CC2` [Compound 46, N^5-(3,4-Dichlorobenzyl)-2-(3-fluorophenyl)-6,7-dihydropyrazolo[1,5-a]pyrazine-3,5(4H)-dicarboxamide]: on CK1ε, the IC50 lay in the range of 10 to 100 nM. For `CC(=O)N1CCC(NC(=O)N2CCn3nc(-c4cccc(F)c4)c(C(N)=O)c3C2)CC1` [Compound 97], the IC50 at CK1ε lay within 10 to 100 nM. On the same count and under the same terms, the result for `CC(C)(C)NC(=O)N1Cc2c(C(N)=O)c(-c3ccc(F)c(Cl)c3)nn2CC12CC2` [Compound 350, N^5′-(tert-Butyl)-2′-(3-chloro-4-fluorophenyl)-4′H-spiro[cyclopropane-1,6′-pyrazolo[1,5-a]pyrazine]-3′,5′(7′H)-dicarboxamide] reads 100 to 2000 nM.

For `NC(=O)c1c(-c2cccc(F)c2)nn2c1CN(C(=O)Nc1ccc(OC(F)F)cc1)CC2` [Compound 89, N^5-(4-(Difluoromethoxy)phenyl)-2-(3-fluorophenyl)-6,7-dihydropyrazolo[1,5-a]pyrazine-3,5(4H)-dicarboxamide], the 50% inhibitory concentration (IC50) on CK1ε lay in the range of 10 to 100 nM.
